Measured values taken from PMC8449061, “A structural model for (GlcNAc)2 translocation via a periplasmic chitooligosaccharide-binding protein from marine Vibrio bacteria” (The Journal of Biological Chemistry, 2021).

Columns and labels:
Format in all cases: binding
VhCBP WT = test: ITC titration of WT VhCBP with (GlcNAc)2–4; details: for ΔG° / ΔH° / −TΔS° / Kd: 20 mM Tris-HCl pH 8.0, 25 °C; for ΔG° / ΔH° / −TΔS°: mean ± SD; for Kd: n fixed at 1, mean ± SD of three experiments; for fold lower affinity than (GlcNAc)2: from Kd values
Protocol: We previously reported ITC data for (GlcNAc)2–4 binding to VhCBP in 20 mM potassium phosphate, pH 8.0, at 4 °C ([13]). Here, we re-evaluated the ITC data by conducting binding experiments in Tris HCl, pH 8.0, at 25 °C using (GlcNAc)n (n = 2–4) as the ligands. The binding interactions for individual ligands were determined assuming a 1:1 stoichiometry.
(§1) Figure 5 ITC profiles obtained from (GlcNAc)2titration using VhCBP WT and mutants. Thermograms (upper) and binding isotherms with theoretical fits (lower) of the individual titrations are presented. Titration experiments were conducted in 20 mM Tris HCl, pH 8.0, at 25 °C. ITC, isothermal titration calorimetry. VhCBP, CBP from Vibrio campbellii type strain ATCC BAA-1116.
(§2) ITC experiments were conducted by titrating 200 μM (GlcNAc)n (n = 2, 3, or 4) solutions from the injection syringe into 20 μM WT VhCBP in the sample cell. The titrations were performed in 20 mM Tris-HCl buffer, pH 8.0, by a PEAQ-ITC (Malvern Instruments) using the operational software installed in the equipment. Briefly, the temperature in the sample cell was maintained at 25 °C, and the difference in temperature (ΔT) between the reference cell and the sample cell was compensated by heaters fitted to the cells. The compensation energy utilized per second was plotted against experimental time. Peak integrations of the individual troughs were replotted against the molar ratio of the ligand to protein. The binding isotherm thus obtained was used for data-fitting analysis using the ‘One-Set of Sites’ model defined in MicroCal PEAQ-ITC Analysis Software to obtain Kd, ΔG°, ΔH°, and ΔS° terms. […] Titrations of (GlcNAc)2 to the individual VhCBP mutants were performed as described for the WT protein.
Table S2: ITC experimental conditions for titration of VhCBP and its mutants with (GlcNAc) 2-4 . […]

VhCBP E10A = test: ITC titration of VhCBP mutant E10A with (GlcNAc)2
From the text: (§3) These proteins were used for ITC binding experiments with (GlcNAc)2 as the ligand. […] Degrees of conservation among five members of cluster/subcluster C-IV SBPs (VhCBP, VcCBP, TmCeBP, TmMnBP1, and TmMnBP2) are also represented by coloring dark red (high degree of conservation) to pale red (moderate degree of conservation) to white (low degree of conservation).
as §1, §2
(§4) Table S2: ITC experimental conditions for titration of VhCBP and its mutants with (GlcNAc) 2-4 .
(§5) Table S3: Conditions for co-crystallization of VhCBP mutants with (GlcNAc) 2.

VhCBP N204A = test: ITC titration of VhCBP mutant N204A with (GlcNAc)2
From the text: as §3, §1, §2, §4, §5

VhCBP S221A = test: ITC titration of VhCBP mutant S221A with (GlcNAc)2
From the text: as §3, §1, §2, §4, §5

VhCBP W363A = test: ITC titration of VhCBP mutant W363A with (GlcNAc)2
From the text: as §3, §1, §2, §4, §5

VhCBP D365A = test: ITC titration of VhCBP mutant D365A with (GlcNAc)2
From the text: as §3, §1, §2, §4, §5

VhCBP N409A = test: ITC titration of VhCBP mutant N409A with (GlcNAc)2
From the text: as §3, §1, §2, §4, §5

VhCBP F411A = test: ITC titration of VhCBP mutant F411A with (GlcNAc)2
From the text: as §3, §1, §2, §4, §5

VhCBP F437A = test: ITC titration of VhCBP mutant F437A with (GlcNAc)2
From the text: as §3, §1, §2, §4, §5

VhCBP W513A = test: ITC titration of VhCBP mutant W513A with (GlcNAc)2
From the text: as §3, §1, §2, §4, §5

VhCBP W363A/W513A = test: ITC titration of VhCBP double mutant W363A/W513A with (GlcNAc)2; details: 20 mM Tris HCl pH 8.0, 25 °C
From the text: To evaluate the contributions of the amino acid residues in (GlcNAc)2 binding, we carried out site-directed mutagenesis to substitute the designated residues and successfully produced nine single mutants, E10A, N204A, S221A, W363A, D365A, N409A, F411A, F437A, and W513A, and one double mutant, W363A/W513A. All proteins were purified to homogeneity by Ni-NTA affinity chromatography, followed by gel filtration, and their purities were checked by SDS-PAGE analysis (Fig. S2). These proteins were used for ITC binding experiments with (GlcNAc)2 as the ligand. […] The effects on ΔG° in the other mutants (E10A, N204A, S221A, N409A, and F411A) were moderate, although one mutation had been introduced into an amino acid with a high degree of conservation (Asn^204). Changes in ΔG° (ΔΔG°) resulting from all the mutations were mapped on the structure of VhCBP in complex with (GlcNAc)2 as shown in Figure 6B. Degrees of conservation among five members of cluster/subcluster C-IV SBPs (VhCBP, VcCBP, TmCeBP, TmMnBP1, and TmMnBP2) are also represented by coloring dark red (high degree of conservation) to pale red (moderate degree of conservation) to white (low degree of conservation).
Figure 5 ITC profiles obtained from (GlcNAc)2titration using VhCBP WT and mutants. Thermograms (upper) and binding isotherms with theoretical fits (lower) of the individual titrations are presented. […]

## CC(=O)N[C@H]1[C@H](O[C@H]2[C@H](O)[C@@H](NC(C)=O)C(O)O[C@@H]2CO)O[C@H](CO)[C@@H](O)[C@@H]1O (stereo partly drawn) [(GlcNAc)2]
VhCBP WT
  ΔG°: -43.1 ± 1.3 kJ/mol
  ΔH°: -16.3 ± 0.42 kJ/mol
  −TΔS°: -26.8 ± 0.84 kJ/mol
  Kd: 0.03 ± 0.01 µM
VhCBP E10A; E10A versus WT
  ΔΔG°: +1.9 ± 0.2 kcal.mol^−1
VhCBP E10A; ITC, E10A, 20 mM Tris-HCl pH 8.0, 25 °C, mean ± SD
  Kd: 0.71 ± 0.07 µM
VhCBP E10A; ITC, E10A, pH 8.0, 25 °C
  ΔG°: -35.1 ± 0.42 kJ/mol
  ΔH°: -36.8 ± 0.42 kJ/mol
  −TΔS°: 1.7 ± 0.84 kJ/mol
VhCBP N204A; ITC, N204A, 20 mM Tris-HCl pH 8.0, 25 °C, mean ± SD
  Kd: 0.83 ± 0.17 µM
VhCBP N204A; ITC, N204A, pH 8.0, 25 °C
  ΔG°: -34.7 ± 0.42 kJ/mol
  ΔH°: -3.14 ± 0.21 kJ/mol
  −TΔS°: -31.8 ± 0.84 kJ/mol
VhCBP N204A; N204A versus WT
  ΔΔG°: +2.1 ± 0.3 kcal.mol^−1
VhCBP S221A; ITC, S221A, 20 mM Tris-HCl pH 8.0, 25 °C, mean ± SD
  Kd: 0.07 ± 0.06 µM
VhCBP S221A; ITC, S221A, pH 8.0, 25 °C
  ΔG°: -42.7 ± 4.18 kJ/mol
  ΔH°: -22.2 ± 2.9 kJ/mol
  −TΔS°: -20.5 ± 5.86 kJ/mol
VhCBP S221A; S221A versus WT
  ΔΔG°: +0.1 ± 1.0 kcal.mol^−1
VhCBP W363A; ITC, W363A, 20 mM Tris-HCl pH 8.0, 25 °C, mean ± SD
  Kd: 80.2 ± 19.9 µM
VhCBP W363A; ITC, W363A, pH 8.0, 25 °C
  ΔG°: -23.4 ± 0.42 kJ/mol
  ΔH°: -7.95 ± 7.53 kJ/mol
  −TΔS°: -15.5 ± 8.37 kJ/mol
VhCBP W363A; W363A versus WT
  ΔΔG°: +4.7 ± 0.4 kcal.mol^−1
VhCBP D365A; D365A versus WT
  ΔΔG°: +8.6 ± 0.3 kcal.mol^−1
VhCBP D365A; ITC, D365A, 20 mM Tris-HCl pH 8.0, 25 °C, mean ± SD
  Kd: 65000 µM
VhCBP D365A; ITC, D365A, pH 8.0, 25 °C
  ΔG°: -6.69 ± 0 kJ/mol
  ΔH°: -47.3 ± 1.7 kJ/mol
  −TΔS°: 40.6 ± 1.7 kJ/mol
VhCBP N409A; ITC, N409A, 20 mM Tris-HCl pH 8.0, 25 °C, mean ± SD
  Kd: 0.45 ± 0.1 µM
VhCBP N409A; ITC, N409A, pH 8.0, 25 °C
  ΔG°: -36.4 ± 0.42 kJ/mol
  ΔH°: -40.2 ± 2.5 kJ/mol
  −TΔS°: 4.18 ± 2.9 kJ/mol
VhCBP N409A; N409A versus WT
  ΔΔG°: +1.6 ± 0.2 kcal.mol^−1
VhCBP F411A; F411A versus WT
  ΔΔG°: +1.6 ± 0.3 kcal.mol^−1
VhCBP F411A; ITC, F411A, 20 mM Tris-HCl pH 8.0, 25 °C, mean ± SD
  Kd: 0.4 ± 0.07 µM
VhCBP F411A; ITC, F411A, pH 8.0, 25 °C
  ΔG°: -36.4 ± 0.42 kJ/mol
  ΔH°: -13.8 ± 0.42 kJ/mol
  −TΔS°: -22.6 ± 0.42 kJ/mol
VhCBP F437A; F437A versus WT
  ΔΔG°: +4.1 ± 0.3 kcal.mol^−1
VhCBP F437A; ITC, F437A, 20 mM Tris-HCl pH 8.0, 25 °C, mean ± SD
  Kd: 29.7 ± 0.5 µM
VhCBP F437A; ITC, F437A, pH 8.0, 25 °C
  ΔG°: -25.9 ± 0 kJ/mol
  ΔH°: -46 ± 1.7 kJ/mol
VhCBP W513A; ITC, W513A ('half-open'/semiopen state), 20 mM Tris-HCl pH 8.0, 25 °C, mean ± SD
  Kd: 36.8 ± 7.4 µM
VhCBP W513A; ITC, W513A, pH 8.0, 25 °C
  ΔG°: -25.5 ± 0.42 kJ/mol
  ΔH°: -24.3 ± 0 kJ/mol
  −TΔS°: -1.3 ± 0.42 kJ/mol
VhCBP W513A; W513A (semiopen) versus WT (closed), from Kd
  lower affinity of semiopen state than the closed state: 1200
VhCBP W513A; W513A versus WT
  ΔΔG°: +4.2 ± 0.3 kcal.mol^−1
VhCBP W363A/W513A
  binding detected by ITC (ND represents no detectable binding): did not exhibit any clear heat release

## CC(=O)N[C@H]1[C@H](O[C@H]2[C@H](O)[C@@H](NC(C)=O)C(O)O[C@@H]2CO)O[C@H](CO)[C@@H](O[C@@H]2O[C@H](CO)[C@@H](O)[C@H](O)[C@H]2NC(C)=O)[C@@H]1O (stereo partly drawn) [(GlcNAc)3]
VhCBP WT
  ΔG°: -40.6 ± 1.3 kJ/mol
  ΔH°: -19.7 ± 0.42 kJ/mol
  −TΔS°: -20.9 ± 1.3 kJ/mol
  Kd: 0.09 ± 0.05 µM
  fold lower affinity than (GlcNAc)2: 3 fold

## CC(=O)N[C@H]1[C@H](O[C@H]2[C@H](O)[C@@H](NC(C)=O)C(O)O[C@@H]2CO)O[C@H](CO)[C@@H](O[C@@H]2O[C@H](CO)[C@@H](O[C@@H]3O[C@H](CO)[C@@H](O)[C@H](O)[C@H]3NC(C)=O)[C@H](O)[C@H]2NC(C)=O)[C@@H]1O (stereo partly drawn) [(GlcNAc)4]
VhCBP WT
  ΔG°: -36.8 ± 1.3 kJ/mol
  ΔH°: -20.1 ± 2.5 kJ/mol
  −TΔS°: -16.7 ± 4.18 kJ/mol
  Kd: 0.4 ± 0.24 µM
  fold lower affinity than (GlcNAc)2: 12 fold
